Test results: patent publication US20250345454A1, “CHEMOTHERAPEUTIC PACLITAXEL BASED MICELLULAR NANOPARTICLES” (Peptinovo Biopharma Inc., priority 2024, published 2025)
Where no end group is shown, it is not given here. [ ]: non-standard residue; d: D form. Aib = CC(C)(N)C(=O)O

Columns and labels:
[1] = system: SK-OV-3 cells; assay: SK-OV-3 growth inhibition, 72 hr, MTT assay; assay type: cell-based, human; conditions: for SK-OV-3 growth inhibition, comparison of anchor lipids: conjugates tested as C-m-HDLs prepared by solvent lyophilization, FIGS. 12A and 12B; for SK-OV-3 growth inhibition, comparison of peptides: tested as C-m-HDLs loaded with conjugate 20 made with the named peptide, FIG. 13
Description: In this Example, the mole portions of components in the C-m-HDLs prepared by solvent lyophilization were POPC: egg SM: peptide: conjugate 5.6:2.4:2:1. 20 mM stock solutions of POPC and of egg SM were prepared in tert-butyl alcohol: water (8:2 v/v). Peptide SEQ ID NO: 25 (acetate counter ion) was dissolved in tert-butyl alcohol/water/acetic acid (80:20:7 v/v) to obtain a 10 mM peptide solution. Conjugates 20 and 30 were separately dissolved in tert-butyl alcohol: water (95:5) to a final concentration of 10 mM.
For C-m-HDL preparation, 2.8 mL of 20 mM POPC, 1.2 mL of 20 mM egg SM, 2 mL of 10 mM peptide, 1 mL of 10 mM conjugate, and 0.3 mL acetic acid were combined in a 20 mL glass vial. The combined solution was frozen at ≥−70° C. for ≥1 hr. The frozen vial was placed in the chamber of a lyophilizer set at a shelf temperature of −20° C. A vacuum between 100 to 150 mTorr was applied for >20 hr. The shelf temperature was raised to −10° C. and the vacuum was continued for >15 hr. The shelf temperature was then raised to 20° C. and the vacuum continued for 24 hr. The dried cake was dissolved in PBS to obtain C-m-HDLs. The uniformity of the C-m-HDLs was evaluated by SEC (Acclaim™ SEC-1000, 300 mm×4.6 mm column, 0.3 mL/min PBS mobile phase, 210 nm and 280 nm UV detection) and by dynamic light scattering. The phospholipid content was established with a commercially available, enzyme-based, colorimetric assay kit. Peptide and conjugate content were established by HPLC.
Two C-m-HDLs were prepared as above, containing either Conjugate 20 or Conjugate 30 were then tested for their growth inhibition activity against SK-OV-3 cells (ATCC). SK-OV-3 cells were grown in McCoy's-5A media supplemented with 10% fetal bovine serum and maintained in a 37° C. incubator under a 5% CO2 atmosphere. To assess growth inhibition, the growth medium of cells grown in 96-well plates was supplemented with various concentrations of C-m-HDL (cmpd 20), C-m-HDL (compd 30) or paclitaxel from a DMSO stock solution. The 96-well plates were incubated for 72 hr. The relative amount of live cells in each of the wells after 72 hr was determined with the MTT assay. The concentrations of test articles causing 50% growth inhibition (GIso) were obtained by performing a non-linear fit of the MTT results to a 4-parmeter logistic function. The results are plotted in FIG. 11.

[2] = system: Sprague-Dawley rats; assay: Adrenal gland functionality in rats after dosing (ACTH challenge, plasma corticosterone); assay type: in vivo; conditions: 4 mg/kg on Days 1, 4 and 7; ACTH challenge Day 11; paclitaxel intraperitoneal, C-m-HDL intravenous; FIG. 10
Description: A paclitaxel stock solution was prepared by dissolving paclitaxel in 1:1 (v/v) Cremophor EL/ethanol (95%) to a final paclitaxel concentration of […] (C-E paclitaxel solution). Next, a paclitaxel solution suitable for dosing was prepared by combining one volume of the C-E paclitaxel solution with 3 volumes of 0.9 weight % NaCl. This solution is designated as “Control”.
C-m-HDL (cmpd 20) was prepared as per Example 12.
The in vivo study was conducted in rats in accordance with the current guidelines for animal welfare (Guide for the Care and Use of Laboratory Animals, 8th Ed., 2011). The procedures used in the study were reviewed and approved by the Institutional Animal Care and Use Committee.
Eighteen (18) female Sprague-Dawley rats were randomly assigned to 3 groups of 6 animals each. All animals were lightly anesthetized using isoflurane and dosed intraperitoneally on Days 1, 4, and 7 with paclitaxel at 4 mg/kg in a dose volume of 1.5 mL/kg, or intravenously with C-m-HDL (cmpd 20) at 4 mg/kg or vehicle (saline) via the tail vein using a dose volume of 1.5 mL/kg. Group 1 received saline, Group 2 received paclitaxel, and Group 3 received C-m-HDL (cmpd 20). On Day 11, rats in each group were lightly anesthetized using isoflurane within their home cage to minimize potential stress responses. […] Plasma corticosterone content was determined with a commercially available ELISA kit.

`CC(=O)O[C@H]1C(=O)[C@@]2(C)[C@H]([C@H](OC(=O)c3ccccc3)[C@]3(O)C[C@H](OC(=O)[C@H](OC(=O)Oc4cc(C)c5c(c4)CC[C@@](C)(CC/C=C(\C)CC/C=C(\C)CCC=C(C)C)O5)[C@@H](NC(=O)c4ccccc4)c4ccccc4)C(C)=C1C3(C)C)[C@]1(OC(C)=O)CO[C@@H]1C[C@@H]2O` [Conjugate 20, paclitaxel-delta-tocotrienol conjugate] was tested, and the “SK-OV-3 growth inhibition, comparison of anchor lipids” value [1] was “equivalent results” and the “SK-OV-3 growth inhibition, comparison of anchor lipids” value ([1]; listed as paclitaxel-delta-tocotrienol) was “essentially equivalent”.

`CC(=O)O[C@H]1C(=O)[C@@]2(C)[C@H]([C@H](OC(=O)c3ccccc3)[C@]3(O)C[C@H](OC(=O)[C@H](O)[C@@H](NC(=O)c4ccccc4)c4ccccc4)C(C)=C1C3(C)C)[C@]1(OC(C)=O)CO[C@@H]1C[C@@H]2O` [paclitaxel] was tested, and the “adrenal function / adrenal toxicity” value [2] was “lack of adrenal toxicity”.

“DVFQKLXELFNQLLEKWKQV (DVFQKL[Aib]ELFNQLLEKWKQV) [SEQ ID NO: 25, amphiphilic, alpha-helical peptide used to prepare C-m-HDLs]” was tested, and the “SK-OV-3 growth inhibition, comparison of peptides” value [1] was “substantially the same”.

In the case of “DVFQKLXELFNQLXEKWKQV (DVFQKL[Aib]ELFNQL[Aib]EKWKQV) [SEQ ID NO: 35, amphiphilic, alpha-helical peptide used to prepare C-m-HDLs]”, the “SK-OV-3 growth inhibition, comparison of peptides” value [1] is reported as “substantially the same”.
